This is an account of results in ChEMBL document CHEMBL4665816, “Syringoleosides A-H, Secoiridoids from Syringa dilatata Flowers and Their Inhibition of NO Production in LPS-Induced RAW 264.7 Cells” (J Nat Prod, 2020).

Each structure is given as a SMILES string.

The test deals with RAW264.7. Nature of the test: Anti-inflammatory activity in mouse RAW264.7 cells assessed as inhibition of LPS-induced NO production after 24 hrs by Griess reagent-based assay. It counts as functional, cell-based. As to conditions: RAW264.7, 24 h.
Usually IC50 stands for the concentration that inhibits the measured activity by half. As for `C/C=C1/[C@H](O[C@@H]2O[C@H](CO)[C@@H](O)[C@H](O)[C@H]2O)OC=C(C(=O)OC)[C@H]1CC(=O)O[C@H]1[C@H](O[C@@H]2OC=C(C(=O)OC)[C@@H](CC(=O)OC[C@H]3O[C@@H](OCCc4ccc(O)cc4)[C@H](O)[C@@H](O)[C@@H]3O)/C2=C\C)O[C@H](CO)[C@@H](O)[C@@H]1O`, the IC50 was over 80 µM.

On to `C/C=C1/[C@H](O[C@@H]2O[C@H](CO)[C@@H](O)[C@H](O)[C@H]2O)OC=C(C(=O)OC)[C@H]1CC(=O)OC[C@H]1O[C@@H](OCCc2ccc(O)cc2)[C@H](O)[C@@H](O)[C@@H]1O`, for which the IC50 was determined as 59.8 µM. To `C/C=C1/[C@H](O[C@@H]2O[C@H](CO)[C@@H](O)[C@H](O)[C@H]2O)OC=C(C(=O)OC)[C@H]1CC(=O)OCCc1ccc(O)c(O)c1` [OLEUROPEIN] belongs over 80 µM; to `C/C=C1/[C@H](O[C@@H]2O[C@H](CO)[C@@H](O)[C@H](O)[C@H]2O)OC=C(C(=O)OC)[C@H]1CC(=O)OC[C@H]1O[C@@H](OCc2ccccc2)[C@H](O)[C@@H](O)[C@@H]1O`, 32.5 µM.

Take `C/C=C1/[C@H](O[C@@H]2O[C@H](CO)[C@@H](O)[C@H](O)[C@H]2O)OC=C(C(=O)OC)[C@H]1CC(=O)OC[C@H]1O[C@@H](Oc2ccc(/C=C/CO)cc2OC)[C@H](O)[C@@H](O)[C@@H]1O`: the IC50 is over 80 µM. For `C/C=C1/[C@H](O[C@@H]2O[C@H](CO)[C@@H](O)[C@H](O)[C@H]2O)OC=C(C(=O)OC)[C@H]1CC(=O)O[C@H]1[C@H](OCCc2ccc(O)c(O)c2)O[C@H](CO)[C@@H](O)[C@@H]1O[C@@H]1O[C@@H](C)[C@H](O)[C@@H](O)[C@H]1O`, the IC50 is 42.1 µM. For `C/C=C1/[C@H](O[C@@H]2O[C@H](CO)[C@@H](O)[C@H](O)[C@H]2O)OC=C(C(=O)OC)[C@H]1CC(=O)OC[C@H]1O[C@@H](OCCc2ccc(O)c(O)c2)[C@H](O)[C@@H](O)[C@@H]1O` the value was 48.9 µM. For `C/C=C1/[C@H](O[C@@H]2O[C@H](CO)[C@@H](O)[C@H](O)[C@H]2O)OC=C(C(=O)OC)[C@H]1CC(=O)OC[C@H]1O[C@@H](Oc2ccc(O)cc2)[C@H](O)[C@@H](O)[C@@H]1O`, the IC50 is 58.3 µM. To `C/C=C1/[C@H](O[C@@H]2O[C@H](CO)[C@@H](O)[C@H](O)[C@H]2O)OC=C(C(=O)OC)[C@H]1CC(=O)OC` belongs over 80 µM.

Consider `C/C=C1/[C@H](O[C@@H]2O[C@H](CO)[C@@H](O)[C@H](O)[C@H]2O)OC=C(C(=O)OC)[C@H]1CC(=O)O[C@@H]1[C@@H](O)[C@H](O[C@@H]2OC=C(C(=O)OC)[C@@H](CC(=O)OC[C@H]3O[C@@H](OCCc4ccc(O)cc4)[C@H](O)[C@@H](O)[C@@H]3O)/C2=C\C)O[C@H](CO)[C@H]1O`, for which the IC50 is over 80 µM. To `C/C=C1/[C@H](O[C@@H]2O[C@H](CO)[C@@H](OC(=O)/C=C/c3ccc(O)c(O)c3)[C@H](O)[C@H]2O)OC=C(C(=O)OC)[C@H]1CC(=O)O[C@@H]1[C@@H](O)[C@@H](O)[C@H](O[C@H]2[C@H](O)[C@@H](O)[C@H](OCCc3ccc(O)c(O)c3)O[C@@H]2CO)O[C@H]1C` belongs over 80 µM; to `C/C=C1/[C@H](O[C@@H]2O[C@H](CO)[C@@H](O)[C@H](O)[C@H]2O)OC=C(C(=O)OC)[C@H]1CC(=O)OC[C@H]1O[C@@H](OCCc2ccccc2)[C@H](O)[C@@H](O)[C@@H]1O`, 65.7 µM.
